Laboratory results taken from patent US11530229B2, “Cyano cyclobutyl compounds for CBL-B inhibition and uses thereof” (Nurix Therapeutics, Inc., priority 2019, dated 2022).

How the values were obtained:
Cbl-b [1] = molecular target: T1, Cbl-b (Homo sapiens (Human), UniProt Q13191); experiment: Cbl-b displacement assay (Cbl-b inhibition assay), Biological Example 1; assay type: binding
Summary of the method: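 Probe displacement read as TR-FRET (520/620 nm) after 1 h with 2 nM streptavidin-terbium and 150 nM BODIPY FL-labelled inhibitor probe, about EC40. Before that, compound in 1% DMSO sat 1 h at room temperature with N-Avitag biotinylated Cbl-b 36–427, 0.5 nM (High) or 0.125 nM (Low), in pH 7.5 HEPES buffer.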

Cbl-b [2] = molecular target: T1, Cbl-b; experiment: Cbl-b displacement assay (Cbl-b inhibition assay), Biological Example 8; assay type: binding; conditions: Table 4
Experimental: (§1) Candidate compounds were evaluated for their ability to bind and inhibit Cbl-b, an E3 ubiquitin-protein ligase, as evidenced by their ability to displace a fluorophore-labeled probe bound to Cbl-b.
(§2) The ability of candidate compounds to displace a known inhibitor and thereby inhibit Cbl-b activity was measured by monitoring the interaction of Cbl-b with a fluorophore-labeled probe in the presence of the candidate compound. A truncated variant of Cbl-b (UniProt number Q13191) containing residues 36-427 and an Avitag at its N-terminus was co-expressed with BirA biotin ligase and purified using a standard protocol (see Dou et al., Nature Structural and Molecular Biology 8: 982-987, 2013; Avidity LLC).
Fluorescently-labeled inhibitor probe was synthesized and tagged with BODIPY FL. Cbl-b displacement assays were performed in a 384-well plate at room temperature in a […] by pre-incubating 0.5 nM Cbl-b or 0.125 nM Cbl-b (final concentration, indicated as “High” and “Low,” respectively) in an assay buffer containing 20 mM HEPES pH 7.5, 150 mM NaCl, 0.01% Triton X-100, 0.01% BSA, and 0.5 mM TCEP in the presence of a candidate compound in 1% DMSO (final concentration) for 1 hour. After incubation in the presence of the candidate compound, the plate was incubated for an additional one hour in the presence of an approximate EC40 binding saturation consisting of 150 nM fluorescently-labeled inhibitor probe and 2 nM Streptavidin-Terbium (Cisbio) (final concentrations). Following the one hour incubation, the plates were read for TR-FRET signal at […] using an Envision plate reader (Perkin Elmer).
(§3) The resulting data for the Cbl-b activity assays were analyzed using standard methods to determine the IC50 values for the tested compounds.

Cbl-b [3] = molecular target: T1, Cbl-b; experiment: Cbl-b displacement assay (Cbl-b inhibition assay), Biological Example 12; assay type: binding; conditions: Table 7
Experimental: as §1, §2
Fluorescently-labeled inhibitor probe was synthesized and tagged with BODIPY FL. Cbl-b displacement assays were performed in a 384-well plate at room temperature in a […] by pre-incubating 0.5 nM Cbl-b or 0.125 nM Cbl-b (final concentration, indicated as “High” and “Low,” respectively) in an assay buffer containing 20 mM HEPES pH 7.5, 150 mM NaCl, 0.01% Triton X-100, 0.01% BSA and 0.5 mM TCEP in the presence of a candidate compound in 1% DMSO (final concentration) for one hour. After incubation in the presence of the candidate compound, the plate was incubated for an additional one hour in the presence of an approximate EC40 binding saturation consisting of 150 nM fluorescently-labeled inhibitor probe and 2 nM Streptavidin-Terbium (Cisbio) (final concentrations). Following the one hour incubation, the plates were read for TR-FRET signal at […] using an Envision plate reader (Perkin Elmer).
as §3

[4] = system: primary human total T-cells; experiment: T-cell activation, IL-2 secretion, Biological Example 2; assay type: cell-based; conditions: 48 hours, fold change over baseline; for fold induction at 0.3 µM: 0.3 μM inhibitor; for fold induction at 1 µM: 1 μM inhibitor; for fold induction at 3 µM: 3 μM inhibitor
[5] = system: primary human total T-cells; experiment: T-cell activation, CD25 surface staining, Biological Example 2; assay type: cell-based; conditions: 48 hours, fold change over baseline; for fold induction at 0.3 µM: 0.3 μM inhibitor; for fold induction at 1 µM: 1 μM inhibitor; for fold induction at 3 µM: 3 μM inhibitor
[6] = system: primary human total T-cells; experiment: T-cell activation, IL-2 secretion, Biological Example 9; assay type: cell-based; conditions: 48 hours, fold change over baseline, Table 5; for IL-2 secretion CD3/CD28 0.3 μM / IL-2 secretion CD3/CD28 1 μM: anti-CD3 and anti-CD28 co-stimulation; for IL-2 secretion CD3/CD28 0.3 μM: 0.3 μM inhibitor; for IL-2 secretion CD3/CD28 1 μM / IL-2 secretion CD3 1 μM: 1 μM inhibitor; for IL-2 secretion CD3 1 μM / IL-2 secretion CD3 3 μM: anti-CD3 stimulation alone; for IL-2 secretion CD3 3 μM: 3 μM inhibitor
[7] = system: primary human total T-cells; experiment: T-cell activation, IL-2 secretion, Biological Example 13; assay type: cell-based; conditions: 48 hours, fold change over baseline, Table 8; for IL-2 secretion CD3/CD28 0.3 μM / IL-2 secretion CD3/CD28 1 μM: anti-CD3 and anti-CD28 co-stimulation; for IL-2 secretion CD3/CD28 0.3 μM: 0.3 μM inhibitor; for IL-2 secretion CD3/CD28 1 μM / IL-2 secretion CD3 1 μM: 1 μM inhibitor; for IL-2 secretion CD3 1 μM / IL-2 secretion CD3 3 μM: anti-CD3 stimulation alone; for IL-2 secretion CD3 3 μM: 3 μM inhibitor
[8] = system: primary human total T-cells; experiment: T-cell activation, CD25 surface staining, Biological Example 9; assay type: cell-based; conditions: anti-CD3 and anti-CD28 co-stimulation, 48 hours, fold change over baseline, Table 5
[9] = system: primary human total T-cells; experiment: T-cell activation, CD25 surface staining, Biological Example 13; assay type: cell-based; conditions: anti-CD3 and anti-CD28 co-stimulation, 48 hours, fold change over baseline, Table 8
[10] = 0.125 nM Cbl-b final concentration (Low), read-out: Cbl-b activity IC50 (Low)
[11] = 0.125 nM Cbl-b final concentration (Low), read-out: Cbl-b IC50 (Low)
[12] = anti-CD3 and anti-CD28 co-stimulation
[13] = anti-CD3 and anti-CD28 co-stimulation, read-out: IL-2 secretion CD3/CD28 1 μM
[14] = anti-CD3 stimulation alone, read-out: IL-2 secretion CD3 1 μM
[15] = anti-CD3 and anti-CD28 co-stimulation, read-out: CD25 staining CD3/CD28 1 μM
[16] = anti-CD3 stimulation alone, read-out: CD25 staining CD3 1 μM
[17] = read-out: IC50 values in the Cbl-b inhibition assay of Biological Example 1
[18] = 0.5 nM Cbl-b final concentration (High), read-out: Cbl-b IC50 (High)

T1 sequence (Q13191 36-427): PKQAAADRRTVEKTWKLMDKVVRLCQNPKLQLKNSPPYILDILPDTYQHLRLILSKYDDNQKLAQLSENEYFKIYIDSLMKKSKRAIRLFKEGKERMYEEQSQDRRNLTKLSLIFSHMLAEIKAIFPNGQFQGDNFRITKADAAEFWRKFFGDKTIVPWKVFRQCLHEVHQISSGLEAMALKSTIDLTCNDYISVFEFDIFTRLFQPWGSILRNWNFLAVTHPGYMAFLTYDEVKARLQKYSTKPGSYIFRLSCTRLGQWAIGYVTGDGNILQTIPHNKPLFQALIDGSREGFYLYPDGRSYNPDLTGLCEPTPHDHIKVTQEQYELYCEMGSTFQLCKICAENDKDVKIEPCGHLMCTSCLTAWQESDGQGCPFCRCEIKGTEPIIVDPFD

Structure (SMILES) | IC50 (Cbl-b [1]; [10]) | IC50 (Cbl-b [2]; [11]) | IC50 (Cbl-b [3]; [11]) | fold induction at 0.3 µM [4, 12] | fold induction at 1 µM [4, 13] | fold induction at 1 µM [4, 14] | fold induction at 3 µM ([4]; anti-CD3 stimulation alone) | fold induction at 0.3 µM [5, 12] | fold induction at 1 µM [5, 15] | fold induction at 1 µM [5, 16] | fold induction at 3 µM ([5]; anti-CD3 stimulation alone) | IL-2 secretion CD3/CD28 0.3 μM [6] | IL-2 secretion CD3/CD28 1 μM [6] | IL-2 secretion CD3 1 μM [6] | IL-2 secretion CD3 3 μM [6] | IL-2 secretion CD3/CD28 0.3 μM [7] | IL-2 secretion CD3/CD28 1 μM [7] | IL-2 secretion CD3 1 μM [7] | IL-2 secretion CD3 3 μM [7] | IC50 (Cbl-b [1]; [17]) | also measured
Cn1cnnc1C[C@]1(c2cccc(N3Cc4c(cc(CN[C@@H]5CCC(F)(F)C5)cc4C(F)(F)F)C3=O)c2)C[C@H](C#N)C1 [Compound 21, (1R,3r)-3-(3-(6-((((R)-3,3-difluorocyclopentyl)amino)methyl)-1-oxo-4-(trifluoromethyl)isoindolin-2-yl)phenyl)-3-((4-methyl-4H-1,2,4-triazol-3-yl)methyl)cyclobutane-1-carbonitrile] | < 1 nM | < 1 nM | < 1 nM | > 20 | > 20 | > 0.85 | > 0.85 | > 1.39 | > 1.39 | > 1.15 | > 1.15 | A (A indicates >15 fold) | A (A indicates >15 fold) | A (A indicates >0.66 fold) | A (A indicates >0.66 fold) | A (A indicates >15 fold) | A (A indicates >15 fold) | A (A indicates >0.66 fold) | A (A indicates >0.66 fold) |  | 
Cn1cnnc1C[C@]1(c2cccc(N3Cc4c(cc(CN5CCC6(CC6)C5)cc4C(F)(F)F)C3=O)c2)C[C@H](C#N)C1 [Compound 4, (1r,3r)-3-(3-(6-((5-azaspiro[2.4]heptan-5-yl)methyl)-1-oxo-4-(trifluoromethyl)isoindolin-2-yl)phenyl)-3-((4-methyl-4H-1,2,4-triazol-3-yl)methyl)cyclobutane-1-carbonitrile] | 1 to 2 nM | 1 to 5 nM | 1 to 5 nM | ≤ 15 | 15 to 20 | 0.4 to 0.85 | 0.4 to 0.85 | 1.24 to 1.39 | 1.24 to 1.39 | > 1.15 | > 1.15 | A (A indicates >15 fold) | A (A indicates >15 fold) | A (A indicates >0.66 fold) | A (A indicates >0.66 fold) | A (A indicates >15 fold) | A (A indicates >15 fold) | A (A indicates >0.66 fold) | A (A indicates >0.66 fold) | 1 to 2 nM | 
C[C@@H]1CN(Cc2cc(C(=O)Nc3cccc([C@]4(Cc5nncn5C)C[C@@H](C#N)C4)c3)nc(C3CC3)c2)CCO1 [Compound 56, N-(3-((1r,3R)-3-cyano-1-((4-methyl-4H-1,2,4-triazol-3-yl)methyl)cyclobutyl)phenyl)-6-cyclopropyl-4-(((R)-2-methylmorpholino)methyl)picolinamide] | < 1 nM | < 1 nM | < 1 nM | 15 to 20 | > 20 | 0.4 to 0.85 | 0.4 to 0.85 | ≤ 1.24 | ≤ 1.24 | 1 to 1.15 | 1 to 1.15 | A (A indicates >15 fold) | A (A indicates >15 fold) | A (A indicates >0.66 fold) | A (A indicates >0.66 fold) | A (A indicates >15 fold) | A (A indicates >15 fold) | A (A indicates >0.66 fold) | A (A indicates >0.66 fold) |  | 
C[C@@H]1CN(Cc2cc3c(c(C(F)(F)F)c2)CN(c2cccc([C@]4(Cc5nncn5C)C[C@@H](C#N)C4)c2)C3=O)CCC1(F)F [Compound 11, (1R,3r)-3-(3-(6-(((R)-4,4-difluoro-3-methylpiperidin-1-yl)methyl)-1-oxo-4-(trifluoromethyl)isoindolin-2-yl)phenyl)-3-((4-methyl-4H-1,2,4-triazol-3-yl)methyl)cyclobutane-1-carbonitrile] | 1 to 2 nM | 1 to 5 nM | 1 to 5 nM | > 20 | > 20 | > 0.85 | > 0.85 | 1.24 to 1.39 | 1.24 to 1.39 | 1 to 1.15 | ≤ 1 | A (A indicates >15 fold) | A (A indicates >15 fold) | A (A indicates >0.66 fold) | A (A indicates >0.66 fold) | A (A indicates >15 fold) | A (A indicates >15 fold) | A (A indicates >0.66 fold) | A (A indicates >0.66 fold) | 1 to 2 nM | 
Cc1cc(C(=O)Nc2cccc([C@]3(Cc4nncn4C)C[C@@H](C#N)C3)c2)nc(C2CC2)n1 [Compound 1, N-(3-((1r,3r)-3-cyano-1-((4-methyl-4H-1,2,4-triazol-3-yl)methyl)cyclobutyl)phenyl)-2-cyclopropyl-6-methylpyrimidine-4-carboxamide] |  |  |  | ≤ 15 | ≤ 15 | < 0.4 | < 0.4 | 1.24 to 1.39 | 1.24 to 1.39 | 1 to 1.15 | 1 to 1.15 | C (C indicates <10 fold) | B (B indicates 10-15 fold) | B (B indicates 0.34-0.66 fold) | B (B indicates 0.34-0.66 fold) | C (C indicates ≤10 fold) | B (B indicates 11-15 fold) | B (B indicates 0.34-0.66 fold) | B (B indicates 0.34-0.66 fold) | 2 to 5 nM | IC50 (Cbl-b [1]; 0.5 nM Cbl-b final concentration (High), read-out: Cbl-b activity IC50 (High)): 2 to 5 nM; IC50 (Cbl-b [2]; [18]): 1 to 5 nM; IC50 (Cbl-b [3]; [18]): 1 to 5 nM; CD25 staining CD3/CD28 0.3 μM ([8]; 0.3 μM inhibitor): B (B indicates 1.25-1.39 fold); CD25 staining CD3/CD28 1 μM ([8]; 1 μM inhibitor): B (B indicates 1.25-1.39 fold); CD25 staining CD3/CD28 0.3 μM ([9]; 0.3 μM inhibitor): B (B indicates 1.25-1.39 fold); CD25 staining CD3/CD28 1 μM ([9]; 1 μM inhibitor): B (B indicates 1.25-1.39 fold)
